# Assay results as given in article PMC10023787, “Trio-pharmacophore DNA-encoded chemical library for simultaneous selection of fragments and linkers” (Nature Communications, 2023).
# Key:
# [1] = target: T1, bovine trypsin (Bos taurus, UniProt P00760); experiment: Trypsin inhibition assay (proteolytic activity on BApNA); format: biochemical; details: for remaining activity at 1000 µM: Concentration 1000000 nM; for improvement (of inhibitory effect): compared with 4-aminomethyl benzamidine; for IC50: mean ± SE, three independent measurements, n.d: not detected
# T1 construct: purchased Sigma-Aldrich T8003
# T1 sequence (P00760 24-246): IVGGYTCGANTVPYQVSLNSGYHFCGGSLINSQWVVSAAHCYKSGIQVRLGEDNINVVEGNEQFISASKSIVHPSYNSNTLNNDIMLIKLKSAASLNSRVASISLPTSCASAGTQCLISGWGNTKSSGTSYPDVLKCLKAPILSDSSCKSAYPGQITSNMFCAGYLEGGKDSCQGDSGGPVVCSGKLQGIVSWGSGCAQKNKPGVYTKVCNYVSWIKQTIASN
# Protocol: The inhibition by the benzamidine derivatives against trypsin was measured using an assay probing the enzyme proteolytic activity on the substrate Nα-Benzoyl-DL-arginine-4-nitroanilide hydrochloride (BApNA). […] 5 µl of BApNA solution (10 mM, dissolved in DMSO) were added immediately prior to the measurement. The final total volume was 100 µl per well. The measurements were performed in a Low Binding 384-well plate. The absorption was measured at 410 nm in intervals of 10 sec for 15 min at 37 °C using a Beckman Coulter’s Paradigm Detection Platform (Brea, USA). The measurements were performed in triplicate. The activity of trypsin was calculated by the hydrolysis rate of BApNA after subtraction of the background-hydrolysis rate. The curves were plotted as a function of the concentration of the inhibitor against the relative enzyme activity. Vmax was derived from the detected absorption signal for each concentration and logistic fitting was performed to obtain IC50 values using Origin 2019b (OriginLab).
# [2] = target: T2, bovine carbonic anhydrase II (CAII) (Bos taurus, UniProt P00921); experiment: Carbonic anhydrase II inhibition assay (esterase activity on p-nitrophenyl acetate); format: biochemical; details: for remaining activity at 0.0001024 µM: 0.1024 nM compound; for remaining activity at 0.0001024 µM / remaining activity at 0.000512 µM / remaining activity at 0.00256 µM / remaining activity at 0.064 µM / remaining activity at 0.32 µM / remaining activity at 1.6 µM / remaining activity at 8 µM / remaining activity at 200 µM / remaining activity at 40 µM: source data of Fig. 2c, read-out: Normalized CA II Activity (Mean); for remaining activity at 0.000512 µM: 0.512 nM compound; for remaining activity at 0.00256 µM: 2.56 nM compound; for remaining activity at 0.064 µM: 64 nM compound; for remaining activity at 0.32 µM: 320 nM compound; for remaining activity at 1.6 µM: 1600 nM compound; for remaining activity at 8 µM: 8000 nM compound; for remaining activity at 200 µM: 200000 nM compound; for IC50: mean ± SE, three independent measurements, n.d: not detected; for remaining activity at 40 µM: 40000 nM compound
# T2 construct: purchased Sigma-Aldrich C7749
# Protocol: CAII inhibition assay was performed to measure the inhibitory effect of re-synthesized CBS-conjugates. The esterase activity of CAII with a chromogenic substrate p-nitrophenyl acetate (pNPA) was measured. The rates of hydrolysis were determined by an increase of absorption at 410 nm after incubating different compounds with CAII. Re-synthesized compounds were diluted in a serial spanning mM to μM concentrations. […] 5 µl of pNPA (50 mM in 20% DMSO) was added to the plate right before the measurement. The absorption was measured at 37 °C each 10 sec for 15 min using a Beckman Coulter’s Paradigm Detection Platform (Brea, USA). The initial Vmax was obtained from the increase of absorption and the Vmax was plotted against the inhibitor concentrations and logistic fitting was performed to obtain IC50 values using Origin 2019b (OriginLab) software.
# [3] = Concentration 0.1024 nM, fraction of uninhibited activity, read-out: mean (Figure 3c, dose-response, relative trypsin activity)
# [4] = Concentration 0.512 nM, fraction of uninhibited activity, read-out: mean (Figure 3c, dose-response, relative trypsin activity)
# [5] = Concentration 2.56 nM, fraction of uninhibited activity, read-out: mean (Figure 3c, dose-response, relative trypsin activity)
# [6] = Concentration 64 nM, fraction of uninhibited activity, read-out: mean (Figure 3c, dose-response, relative trypsin activity)
# [7] = Concentration 320 nM, fraction of uninhibited activity, read-out: mean (Figure 3c, dose-response, relative trypsin activity)
# [8] = Concentration 1600 nM, fraction of uninhibited activity, read-out: mean (Figure 3c, dose-response, relative trypsin activity)
# [9] = Concentration 8000 nM, fraction of uninhibited activity, read-out: mean (Figure 3c, dose-response, relative trypsin activity)
# [10] = Concentration 40000 nM, fraction of uninhibited activity, read-out: mean (Figure 3c, dose-response, relative trypsin activity)
# [11] = Concentration 200000 nM, fraction of uninhibited activity, read-out: mean (Figure 3c, dose-response, relative trypsin activity)
# [12] = fraction of uninhibited activity, read-out: mean (Figure 3c, dose-response, relative trypsin activity)
# [13] = Concentration 0.1024 nM, fraction of uninhibited activity
# [14] = Concentration 0.512 nM, fraction of uninhibited activity
# [15] = Concentration 2.56 nM, fraction of uninhibited activity
# [16] = Concentration 64 nM, fraction of uninhibited activity
# [17] = Concentration 320 nM, fraction of uninhibited activity
# [18] = Concentration 1600 nM, fraction of uninhibited activity
# [19] = Concentration 8000 nM, fraction of uninhibited activity
# [20] = Concentration 40000 nM, fraction of uninhibited activity
# [21] = Concentration 200000 nM, fraction of uninhibited activity
# [22] = Concentration […], fraction of uninhibited activity
# T2 sequence (P00921 whole entry): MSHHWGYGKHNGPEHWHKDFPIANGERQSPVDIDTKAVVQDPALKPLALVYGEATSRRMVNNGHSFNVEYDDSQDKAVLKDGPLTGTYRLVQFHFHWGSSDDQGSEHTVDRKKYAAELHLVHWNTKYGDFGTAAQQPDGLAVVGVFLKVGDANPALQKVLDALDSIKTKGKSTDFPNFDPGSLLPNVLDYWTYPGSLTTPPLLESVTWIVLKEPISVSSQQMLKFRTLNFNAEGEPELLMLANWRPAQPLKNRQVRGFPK
SMILES,"remaining activity at 0.0001024 µM [1, 3]","remaining activity at 0.000512 µM [1, 4]","remaining activity at 0.00256 µM [1, 5]","remaining activity at 0.064 µM [1, 6]","remaining activity at 0.32 µM [1, 7]","remaining activity at 1.6 µM [1, 8]","remaining activity at 8 µM [1, 9]","remaining activity at 40 µM [1, 10]","remaining activity at 200 µM [1, 11]",remaining activity at 0.0001024 µM [2],remaining activity at 0.000512 µM [2],remaining activity at 0.00256 µM [2],remaining activity at 0.064 µM [2],remaining activity at 0.32 µM [2],remaining activity at 1.6 µM [2],remaining activity at 8 µM [2],remaining activity at 200 µM [2],IC50 [2],remaining activity at 40 µM [2],further results
"S=C=Nc1ccccc1I [Compound B, 2-iodophenyl isothiocyanate, reference compound]",103%,102%,94.8%,107%,107%,100%,108%,105%,114%,,,,,,,,,,,"remaining activity at 1000 µM [1, 12]: 90.1%; inhibitory effect ([1]; in words): did not display any detectable inhibitory effect"
NS(=O)(=O)c1ccc(NC(=O)/C=C/c2ccc(-c3ccccc3C(F)(F)F)o2)cc1 [Compound C-0],,,,,,,,,,93.3%,94%,93.6%,84.9%,65.6%,45.7%,38.2%,20.9%,830 nM,,
NS(=O)(=O)c1ccc(NCc2ccc(C(=O)NCCNC(=O)/C=C/c3ccc(-c4ccccc4C(F)(F)F)o3)cc2)cc1 [Compound C-1],,,,,,,,,,93.8%,93.6%,90.4%,87.7%,71.8%,43%,19.9%,2.91%,1290 ± 90 nM,8.01%,
NS(=O)(=O)c1ccc(NC(=O)COc2ccccc2OCC(=O)NCCNC(=O)/C=C/c2ccc(-c3ccccc3C(F)(F)F)o2)cc1 [Compound C-2],,,,,,,,,,91.3%,93.6%,96.1%,83%,61.4%,43.3%,25.6%,14.3%,670 nM,15%,improvement in the IC50 value ([2]; compared with sulfanilamide): 20 fold
NS(=O)(=O)c1ccc(NC(=O)c2ccc(-n3cc(CCC(=O)NCCNC(=O)/C=C/c4ccc(-c5ccccc5C(F)(F)F)o4)nn3)cc2)cc1 [Compound C-4],,,,,,,,,,96.8%,89%,89.3%,89.8%,90.3%,65%,42.3%,9.19%,,33.8%,
NS(=O)(=O)c1ccc(NC(=O)COCC(=O)NCCNC(=O)/C=C/c2ccc(-c3ccccc3C(F)(F)F)o2)cc1 [Compound C-5],,,,,,,,,,101%,100%,96.7%,90.2%,78.3%,56.6%,33.3%,11.8%,2020 ± 310 nM,19.1%,
N=C(N)c1ccc(CNC(=O)CCCC(=O)NCCNC(=S)Nc2cccc(I)c2)cc1 [Compound T-1],,,,,,,,,,,,,,,,,,,,"mean (Figure 3c, dose-response, relative trypsin activity) [1, 13]: 0.9598; mean (Figure 3c, dose-response, relative trypsin activity) [1, 14]: 1.038; mean (Figure 3c, dose-response, relative trypsin activity) [1, 15]: 1.032; mean (Figure 3c, dose-response, relative trypsin activity) [1, 16]: 1.057; mean (Figure 3c, dose-response, relative trypsin activity) [1, 17]: 1.07; mean (Figure 3c, dose-response, relative trypsin activity) [1, 18]: 0.9365; mean (Figure 3c, dose-response, relative trypsin activity) [1, 19]: 0.7184; mean (Figure 3c, dose-response, relative trypsin activity) [1, 20]: 0.2303; mean (Figure 3c, dose-response, relative trypsin activity) [1, 21]: 0.05821; mean (Figure 3c, dose-response, relative trypsin activity) ([1]; Concentration 830000 nM, fraction of uninhibited activity): 0.00834; mean (Figure 3c, dose-response, relative trypsin activity) [1, 22]: 1.021"
N=C(N)c1ccc(CNCc2ccc(C(=O)NCCNC(=S)Nc3cccc(I)c3)cc2)cc1 [Compound T-2],105%,104%,106%,109%,97.3%,81.2%,37.4%,7.09%,1.08%,,,,,,,,,,,"remaining activity at 365 µM ([1]; Concentration 365000 nM, fraction of uninhibited activity, read-out: mean (Figure 3c, dose-response, relative trypsin activity)): 0.681%; improvement (of inhibitory effect) [1]: 70 fold; IC50 [1]: 5.2 ± 2.2 µM"
N=C(N)c1ccc(CNC(=O)C2CCC(C(=O)NCCNC(=S)Nc3cccc(I)c3)CC2)cc1 (stereo not drawn) [Compound T-4],,,,,,,,,,,,,,,,,,,,"mean (Figure 3c, dose-response, relative trypsin activity) [1, 13]: 0.916; mean (Figure 3c, dose-response, relative trypsin activity) [1, 14]: 1.0035; mean (Figure 3c, dose-response, relative trypsin activity) [1, 15]: 1.023; mean (Figure 3c, dose-response, relative trypsin activity) [1, 16]: 0.976; mean (Figure 3c, dose-response, relative trypsin activity) [1, 17]: 0.9546; mean (Figure 3c, dose-response, relative trypsin activity) [1, 18]: 0.8556; mean (Figure 3c, dose-response, relative trypsin activity) [1, 19]: 0.5625; mean (Figure 3c, dose-response, relative trypsin activity) [1, 20]: 0.1537; mean (Figure 3c, dose-response, relative trypsin activity) [1, 21]: 0.03111; mean (Figure 3c, dose-response, relative trypsin activity) ([1]; Concentration 440000 nM, fraction of uninhibited activity): 0.01768; mean (Figure 3c, dose-response, relative trypsin activity) [1, 22]: 0.9246"
N=C(N)c1ccc(CNC2CC(=O)N(CC3CCC(C(=O)NCCNC(=S)Nc4cccc(I)c4)CC3)C2=O)cc1 (stereo not drawn) [Compound T-5],,,,,,,,,,,,,,,,,,,,"mean (Figure 3c, dose-response, relative trypsin activity) [1, 13]: 1.021; mean (Figure 3c, dose-response, relative trypsin activity) [1, 14]: 0.9691; mean (Figure 3c, dose-response, relative trypsin activity) [1, 15]: 0.9977; mean (Figure 3c, dose-response, relative trypsin activity) [1, 16]: 0.9529; mean (Figure 3c, dose-response, relative trypsin activity) [1, 17]: 0.962; mean (Figure 3c, dose-response, relative trypsin activity) [1, 18]: 0.9553; mean (Figure 3c, dose-response, relative trypsin activity) [1, 19]: 0.8147; mean (Figure 3c, dose-response, relative trypsin activity) [1, 20]: 0.4599; mean (Figure 3c, dose-response, relative trypsin activity) [1, 21]: 0.1722; mean (Figure 3c, dose-response, relative trypsin activity) ([1]; Concentration 650000 nM, fraction of uninhibited activity): 0.07286; mean (Figure 3c, dose-response, relative trypsin activity) [1, 22]: 0.9721"

# More lines, main results first:
"remaining activity at 0.0001024 µM [1, 3]","remaining activity at 0.000512 µM [1, 4]","remaining activity at 0.00256 µM [1, 5]","remaining activity at 0.064 µM [1, 6]","remaining activity at 0.32 µM [1, 7]","remaining activity at 1.6 µM [1, 8]","remaining activity at 8 µM [1, 9]","remaining activity at 40 µM [1, 10]","remaining activity at 200 µM [1, 11]",remaining activity at 0.0001024 µM [2],remaining activity at 0.000512 µM [2],remaining activity at 0.00256 µM [2],remaining activity at 0.064 µM [2],remaining activity at 0.32 µM [2],remaining activity at 1.6 µM [2],remaining activity at 8 µM [2],remaining activity at 200 µM [2],IC50 [2],remaining activity at 40 µM [2],SMILES,further results
101%,110%,107%,110%,102%,97.5%,74%,23.7%,5.61%,,,,,,,,,,,N=C(N)c1ccc(CNC(=S)Nc2cccc(I)c2)cc1 [Compound T-0],"remaining activity at 1000 µM [1, 12]: 1.19%; improvement (of inhibitory effect) [1]: approximately 9 fold; IC50 [1]: 16.6 ± 3.1 µM"
93.7%,99.6%,98.7%,108%,90.1%,56.5%,18.3%,3.2%,0.69%,,,,,,,,,,,N=C(N)c1ccc(CNC(=O)C2CCC(C(=O)NCCNC(=S)Nc3cccc(I)c3)CC2)cc1 (stereo not drawn) [Compound T-3],"remaining activity at 650 µM ([1]; Concentration 650000 nM, fraction of uninhibited activity, read-out: mean (Figure 3c, dose-response, relative trypsin activity)): 0%; improvement (of inhibitory effect) [1]: 30 fold; IC50 [1]: 2.1 ± 0.4 µM"
